Laboratory results reported in PMC12528448, “Resistance to CDK7 inhibitors directed by acquired mutation of a conserved residue in cancer cells” (The EMBO Journal, 2025).
Several values for one entry are separate records, joined by “and”; a condition that tells them apart may be missing. Identical values can stand only once.

Legend:
Type in all cases: cell-based, human
[1] = tested on: PolII Ser2 phosphorylation, cyclin K and CDK12 levels in MCF7 cells; assay: Immunoblotting after CDK12 drugs, MCF7; details: WT MCF7; 6 h; immunoblot
Protocol: (§1) Whole-cell lysates were prepared in RIPA buffer (Sigma-Aldrich), supplemented with protease and phosphatase inhibitor cocktails (Roche). Protein sample concentrations were determined using the Pierce BCA Protein Assay kit (ThermoFisher Scientific). In all, 10–20 µg of total protein was loaded for each sample and resolved on 4–15% Mini-PROTEAN TGX Precast Protein Gels (BIO-RAD). Immunoblotting was performed as described (Patel et al, [2018]), using antibodies diluted 1:1000 for P-CDK2 (Thr160; 2561S), CDK2 (2546S), P-Rb (Ser807/811; 9308), Rb (9309), CDK7 (2916) and CDK12 (11973S), from Cell Signalling Technology. PolII CTD phosphorylation antibodies (P-Ser2 (ab5095) and P-Ser5 (ab5131), used at 1:10,000 dilution), as well as total PolII (ab817; 1:2000 dilution) and β-actin (ab6276; 1:100,000 dilution) were purchased from Abcam. CCNK antibody (Thermofisher A301-939A) was used at a 1:1000 dilution. Band intensities were quantified using ImageJ (Schneider et al, [2012]).

[2] = tested on: MCF7 CDK12-D819N mutant cells; assay: Growth assay (SRB), MCF7 CDK12-D819N knock-in; details: for % Growth: MCF7 CDK12 D819N, biological reps
Protocol: (§2) To determine the IC50 of drug treatments on growth, cells were seeded in 96-well culture plates. Two days after seeding, the cells were treated with increasing concentrations of drugs and incubated for 4 days. Cell number was determined using the SRB assay (Skehan et al, [1990]), and IC50 values were calculated using non-linear regression curve fitting in GraphPad Prism v10. For all other growth experiments, cells were seeded into 96-well plates, and appropriate drugs were added 2 days after seeding. Cells were then incubated in an IncuCyte Zoom live-cell imager, with cell confluency measured every 6 h. Cell doubling times were determined by non-linear curve fitting (exponential growth equation) in GraphPad Prism v10.
Alt-R^TM S.p. Cas9 nuclease V3, Alt-R CRISPR-Cas9 crRNA, TracrRNA and the donor templates were obtained from Integrated DNA Technologies. […] Cells were treated with 0.7 µM of Alt-R HDR Enhancer V2 to improve HRD efficiency. Sequences of the CRISPRs in the crRNA and the donor templates are shown in the Reagents and tools table. Donor templates were designed to include non-coding substitutions to aid genome DNA PCR for identifying knock-in events and to facilitate cloning; these substitutions are noted in the Reagents and tools table.

MCF7 cells = assay: Growth assay (SRB), MCF7; details: for % Growth: biological reps
Protocol: as §2

[3] = tested on: PolII Ser2 phosphorylation, CCNK and CDK12 levels in MCF7-CDK12-D819N cells; assay: Immunoblotting after CDK12 drugs, MCF7-CDK12-D819N; details: 6 h, immunoblot
Protocol: as §1

CC[C@H](CO)Nc1nc(NCc2ccc(-c3ccccn3)cc2)c2ncn(C(C)C)c2n1 [(R)-CR8]
Levels of cyclin K and CDK12 [1]: reduced
PolII Ser2 phosphorylation [1]: reduced
Fold Resistance ([2]; MCF7 CDK12-D819N vs MCF7): 12.6 fold
IC50 ([2]; MCF7 CDK12-D819N, SRB): 1060 nM
% Growth ([2]; Log10 Conc. (nM) 0.09): 94.80% and 70.33% and 88.48%
% Growth ([2]; Log10 Conc. (nM) 0.69): 98.42% and 96.39% and 105.30%
% Growth ([2]; Log10 Conc. (nM) 1.29): 84.25% and 91.23% and 97.75%
% Growth ([2]; Log10 Conc. (nM) 1.89): 95.93% and 89.18% and 103.58%
% Growth ([2]; Log10 Conc. (nM) 2.49): 84.48% and 84.10% and 82.39%
% Growth ([2]; Log10 Conc. (nM) -0.52): 97.14% and 75.33% and 99.34%
% Growth ([2]; Log10 Conc. (nM) -1.12): 97.97% and 74.35% and 85.17%
IC50 (MCF7 cells; 4 days, SRB): 84.5 nM
% Growth (MCF7 cells; Log10 Conc. (nM) 0.09, 4 days): 113.64% and 90.46% and 92.99%
% Growth (MCF7 cells; Log10 Conc. (nM) 0.69, 4 days): 122.04% and 94.84% and 85.58%
% Growth (MCF7 cells; Log10 Conc. (nM) 1.29, 4 days): 76.32% and 89.54% and 75.98%
% Growth (MCF7 cells; Log10 Conc. (nM) 1.89, 4 days): 57.39% and 71.11% and 59.97%
% Growth (MCF7 cells; Log10 Conc. (nM) -0.52, 4 days): 115.95% and 88.99% and 104.00%
% Growth (MCF7 cells; Log10 Conc. (nM) -1.12, 4 days): 101.40% and 88.53% and 107.01%
CCNK and CDK12 levels [3]: not reduced
PolII phosphorylation [3]: not inhibited
